Measurements taken from patent publication US8293769B2, “CSF-1R inhibitors, compositions, and methods of use” (Novartis AG, priority 2008, dated 2012).

Tests used:
cKIT = molecular target: T1, cKIT (Homo sapiens, UniProt P10721); experiment: cKIT kinase in vitro biochemical assay (alphascreen); settings: tested at about 1 μM; read-out: CKIT percent inhibition
T1 construct: The kinase domain of cKIT was assayed in 50 mM Hepes; purchased Upstate 14-559

[1] = molecular target: T2, full-length human CSF-1R receptor (Homo sapiens, UniProt P07333); experiment: In vitro inhibition of CSF-1R receptor tyrosine phosphorylation in transfected HEK293H cells; type: cell-based; settings: HEK293-H, tested at about 1 μM, 50 ng/mL MCSF, read-out: PCSF1R percent inhibition
T2 construct: transfected with the full-length human CSF-1R receptor cloned in house; expressed in transfected cells; host or cells: HEK293H (Invitrogen Cat. #11631017)
Protocol: To test the inhibition of CSF-1R receptor tyrosine phosphorylation, HEK293H purchased from Invitrogen Cat. #11631017 cells transfected with the full-length human CSF-1R receptor cloned in house into mammalian episomal transfection vector were incubated for 1 h with serial dilutions of compounds starting at 10 μM with 3 fold dilutions and then stimulated for 8 min with 50 ng/mL MCSF. After the supernatant was removed, the cells were lysed on ice with lysis buffer (150 mM NaCl, 20 mM Tris, pH 7.5, 1 mM EDTA, 1 mM EGTA, 1% Triton X-100 and NaF, protease and phosphatase inhibitors) and then shaken for 15-20 min at 4° C. The lysate was then transferred to total CSF-1R antibody coated 96-well plates that had already been blocked with 3% Blocker A from Mesoscale discovery (MSD) for 2 hours and washed afterwards. Lysates were incubated overnight at 4° C. and the plates were then washed 4× with MSD Tris Wash Buffer. The SULFO-TAG anti-pTyr antibody from MSD was diluted to 20 nM final in 1% Blocker A (MSD) solution and added to the washed plates and incubated for 1.5-2 h before addition of read buffer (MSD). The plates were read on the Sector 6000 instrument (MSD). Raw data was imported in Abase and EC50s calculated with XL-fit data analysis software.

PDGFRb = molecular target: T3, PDGFRb (Homo sapiens, UniProt P09619); experiment: PDGFRb kinase in vitro biochemical assay (alphascreen); settings: tested at about 1 μM; read-out: PDGF RK BETA percent inhibition
T3 construct: The kinase domain of PDGFRβ was assayed in 50 mM Hepes; purchased Invitrogen P3082

[2] = molecular target: T4, cytoplasmic domain of the human CSF-1R (Homo sapiens, UniProt P07333); experiment: In vitro kinase assay for CSF-1R (AlphaScreen); type: biochemical; settings: tested at about 1 μM; read-out: CSF1RK 1 percent inhibition
T4 construct: Recombinant protein corresponding to the cytoplasmic domain of the human CSF-1R; purchased Invitrogen Corporation, Carlsbad, Calif; PV3249
T4 sequence (P07333 539-972 limits assumed): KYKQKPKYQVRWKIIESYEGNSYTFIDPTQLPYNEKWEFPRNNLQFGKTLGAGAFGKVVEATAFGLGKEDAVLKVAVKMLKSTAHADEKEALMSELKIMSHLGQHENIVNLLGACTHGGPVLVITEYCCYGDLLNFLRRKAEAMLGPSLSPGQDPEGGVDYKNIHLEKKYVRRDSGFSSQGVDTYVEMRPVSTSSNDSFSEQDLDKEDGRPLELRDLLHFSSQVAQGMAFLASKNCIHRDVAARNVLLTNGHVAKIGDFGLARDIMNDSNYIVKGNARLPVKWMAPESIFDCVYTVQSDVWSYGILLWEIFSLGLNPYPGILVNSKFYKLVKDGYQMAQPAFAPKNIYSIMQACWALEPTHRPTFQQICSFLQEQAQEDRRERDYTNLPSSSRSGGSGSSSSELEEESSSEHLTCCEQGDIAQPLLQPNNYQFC
Outline: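 Recombinant CSF-1R cytoplasmic domain (4 nM) phosphorylated biotinylated peptide (0.05 μM) at 1.0 μM ATP in HEPES with Mg2+/Mn2+, 2 h at room temperature, compounds from 25 μM in 3-fold steps. AlphaScreen anti-phosphotyrosine PT66 detection; IC50 by non-linear regression.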

[3] = system: MNFS60 (murine AML cells); experiment: Cell viability assay in MCSF dependent MNFS60 cells (Cell Titer Glo); type: cell-based; settings: Mus musculus; tested at about 1 μM; MCSF 10 ng/mL, 72 hrs; read-out: CPEC50 MNFS60MCSF percent inhibition
Outline: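 MNFS60 cells, 5,000 per well in RPMI-1640/10% FBS, grown with 10 ng/mL MCSF and 3-fold compound dilutions for 72 h at 37 °C. Viable cells measured by CellTiter-Glo luminescence, triplicates; EC50 fitted, with MCSF-free wells as 100% inhibition.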

T1 sequence (P10721 589-937 limits assumed): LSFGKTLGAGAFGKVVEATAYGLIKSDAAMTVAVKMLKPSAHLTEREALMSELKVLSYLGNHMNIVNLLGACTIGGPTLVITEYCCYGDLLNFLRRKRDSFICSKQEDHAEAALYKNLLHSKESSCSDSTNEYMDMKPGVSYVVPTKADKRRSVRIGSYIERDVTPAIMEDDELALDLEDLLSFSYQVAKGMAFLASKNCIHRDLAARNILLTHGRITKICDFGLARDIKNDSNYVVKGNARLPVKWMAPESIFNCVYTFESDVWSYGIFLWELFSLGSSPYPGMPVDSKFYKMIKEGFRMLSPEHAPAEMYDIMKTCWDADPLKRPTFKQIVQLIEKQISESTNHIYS
T3 sequence (P09619 600-962 limits assumed): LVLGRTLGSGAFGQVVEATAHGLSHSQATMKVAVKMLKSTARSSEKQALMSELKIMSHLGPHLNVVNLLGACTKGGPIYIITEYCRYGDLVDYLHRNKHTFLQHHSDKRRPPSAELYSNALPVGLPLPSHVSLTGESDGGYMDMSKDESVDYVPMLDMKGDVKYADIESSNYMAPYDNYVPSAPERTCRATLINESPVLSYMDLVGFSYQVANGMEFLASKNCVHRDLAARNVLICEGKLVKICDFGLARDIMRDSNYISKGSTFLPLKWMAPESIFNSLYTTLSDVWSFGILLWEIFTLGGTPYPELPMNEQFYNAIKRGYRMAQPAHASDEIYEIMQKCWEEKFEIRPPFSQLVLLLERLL
T2 sequence (P07333 20-972): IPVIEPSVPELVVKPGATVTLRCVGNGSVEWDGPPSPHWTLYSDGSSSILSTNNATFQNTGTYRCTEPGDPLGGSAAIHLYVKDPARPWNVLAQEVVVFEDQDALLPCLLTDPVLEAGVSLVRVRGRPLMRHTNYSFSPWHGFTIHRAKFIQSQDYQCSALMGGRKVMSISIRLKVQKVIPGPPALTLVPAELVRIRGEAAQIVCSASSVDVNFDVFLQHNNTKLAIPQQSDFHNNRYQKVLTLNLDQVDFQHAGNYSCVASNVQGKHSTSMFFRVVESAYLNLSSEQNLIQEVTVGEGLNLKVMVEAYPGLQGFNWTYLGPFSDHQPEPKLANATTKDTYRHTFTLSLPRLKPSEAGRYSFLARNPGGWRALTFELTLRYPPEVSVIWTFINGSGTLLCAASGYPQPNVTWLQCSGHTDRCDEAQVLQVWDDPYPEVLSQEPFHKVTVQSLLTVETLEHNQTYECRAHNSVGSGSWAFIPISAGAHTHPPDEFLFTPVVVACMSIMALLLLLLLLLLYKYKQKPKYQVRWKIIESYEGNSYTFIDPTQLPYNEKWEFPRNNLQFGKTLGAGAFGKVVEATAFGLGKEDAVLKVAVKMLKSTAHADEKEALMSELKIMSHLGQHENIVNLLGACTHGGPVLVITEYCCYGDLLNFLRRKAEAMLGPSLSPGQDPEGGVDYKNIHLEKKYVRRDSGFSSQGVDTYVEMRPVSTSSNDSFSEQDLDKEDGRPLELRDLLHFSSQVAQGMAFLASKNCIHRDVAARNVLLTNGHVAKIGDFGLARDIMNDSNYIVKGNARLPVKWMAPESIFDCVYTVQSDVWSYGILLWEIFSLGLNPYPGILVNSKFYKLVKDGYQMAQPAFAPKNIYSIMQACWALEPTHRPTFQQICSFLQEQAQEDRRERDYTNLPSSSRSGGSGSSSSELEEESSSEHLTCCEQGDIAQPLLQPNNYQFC

`Cn1ccnc1-c1cncc(Oc2ccc3nc(N[C@@H]4CCCC[C@H]4O)sc3c2)c1` [Compound 66, (1R,2R)-2-(6-(5-(1-methyl-1H-imidazol-2-yl)pyridin-3-yloxy)benzo[d]thiazol-2-ylamino) cyclohexanol] gave an inhibition at 1 µM (cKIT) of 40%, an inhibition at 1 µM [1] of 96% and an inhibition at 1 µM (PDGFRb) of 9%. It also gave an inhibition at 1 µM [2] of 100% and an inhibition at 1 µM [3] of 90%.
In the case of `CC(C)(C)OC(=O)N1CC=C(c2cncc(Oc3ccc4nc(N[C@@H]5CCCC[C@H]5O)sc4c3)c2)CC1` [Compound 79], the inhibition at 1 µM (cKIT) is reported as 48%, the inhibition at 1 µM [1] is reported as 93% and the inhibition at 1 µM (PDGFRb) is reported as 9%. For the same molecule, the inhibition at 1 µM [2] was 100% and the inhibition at 1 µM [3] was 93%.
`O[C@@H]1CCCC[C@H]1Nc1nc2ccc(Oc3cncc(Br)c3)cc2s1` [Compound 45, (1R,2R)-2-(6-(5-bromopyridin-3-yloxy)benzo[d]thiazol-2-ylamino)cyclohexanol] was tested, and the inhibition at 1 µM (cKIT) was 60%, the inhibition at 1 µM [1] was 93% and the inhibition at 1 µM (PDGFRb) was 5%. The inhibition at 1 µM [2] was 100% and the inhibition at 1 µM [3] was 96%.
For `O[C@@H]1CCCC[C@H]1Nc1nc2ccc(Oc3cncc(-c4cccnc4)c3)cc2s1` [Compound 57, (1R,2R)-2-(6-(3,3′-bipyridin-5-yloxy)benzo[d]thiazol-2-ylamino)cyclohexanol], the inhibition at 1 µM (cKIT) was 45%, the inhibition at 1 µM [1] was 96% and the inhibition at 1 µM (PDGFRb) was 0%. The inhibition at 1 µM [2] was 100% and the inhibition at 1 µM [3] was 96%.
`C[C@H](Nc1nc2ccc(Oc3ccnc(-c4ccncc4)n3)cc2s1)C1CCCCC1` [Compound 32, (S)-N-(1-cyclohexylethyl)-6-(2-(pyridin-4-yl)pyrimidin-4-yloxy)benzo[d] thiazol-2-amine] showed an inhibition at 1 µM (cKIT) of 30%, an inhibition at 1 µM [1] of 70% and an inhibition at 1 µM (PDGFRb) of 14%. The inhibition at 1 µM [2] was 100% and the inhibition at 1 µM [3] was 58%.
With `Nc1ccc(-c2cncc(Oc3ccc4nc(N[C@@H]5CCCC[C@H]5O)sc4c3)n2)cn1` [Compound 97, (1R,2R)-2-(6-(6-(6-aminopyridin-3-yl)pyrazin-2-yloxy)benzo[d]thiazol-2-ylamino)cyclohexanol] the inhibition at 1 µM (cKIT) was 24%, the inhibition at 1 µM [1] was 91% and the inhibition at 1 µM (PDGFRb) was 19%. The inhibition at 1 µM [2] was 100% and the inhibition at 1 µM [3] was 62%.
`O[C@@H]1CCCC[C@H]1Nc1nc2ccc(Oc3cncc(-c4cn[nH]c4)n3)cc2s1` [Compound 92, (1R,2R)-2-(6-(6-(1H-pyrazol-4-yl)pyrazin-2-yloxy)benzo [d]thiazol-2-ylamino) cyclohexanol] gave an inhibition at 1 µM (cKIT) of 27%, an inhibition at 1 µM [1] of 93% and an inhibition at 1 µM (PDGFRb) of 23%. It also gave an inhibition at 1 µM [2] of 100% and an inhibition at 1 µM [3] of 70%.
In the case of `CN1CCN(c2ccc(-c3cc(Oc4ccc5nc(N[C@@H]6CCCC[C@H]6O)sc5c4)cnc3-c3ccc(N4CCN(C)CC4)nc3)cn2)CC1` [Compound 107, (1R,2R)-2-(6-(5,6-bis(6-(4-methylpiperazin-1-yl)-pyridin-3-yl)pyridin-3-yloxy)benzo[d]thiazol-2-ylamino)cyclohexanol], the inhibition at 1 µM (cKIT) is reported as 16%, the inhibition at 1 µM [1] is reported as 86% and the inhibition at 1 µM (PDGFRb) is reported as 26%. It also gave an inhibition at 1 µM [2] of 100% and an inhibition at 1 µM [3] of 100%.
In the case of `C[C@H](Nc1nc2ccc(Oc3ccnc(-c4cccnc4)n3)cc2s1)C1CCCCC1` [Compound 31, (S)-N-(1-cyclohexylethyl)-6-(2-(pyridin-3-yl)pyrimidin-4-yloxy)benzo[d] thiazol-2-amine], the inhibition at 1 µM (cKIT) is reported as 29%, the inhibition at 1 µM [1] is reported as 59% and the inhibition at 1 µM (PDGFRb) is reported as 6%. For the same molecule, the inhibition at 1 µM [2] was 100% and the inhibition at 1 µM [3] was 58%.
Work on `Nc1ncc(-c2cncc(Oc3ccc4nc(N[C@@H]5CCCC[C@H]5O)sc4c3)c2)cn1` [Compound 63, (1R,2R)-2-(6-(5-(2-aminopyrimidin-5-yl)pyridin-3-yloxy)benzo[d]thiazol-2-ylamino) cyclohexanol] yielded an inhibition at 1 µM (cKIT) of 35%, an inhibition at 1 µM [1] of 80% and an inhibition at 1 µM (PDGFRb) of 14%. The inhibition at 1 µM [2] was 100% and the inhibition at 1 µM [3] was 61%.
`CN1CCN(c2ccc(-c3cncc(Oc4ccc5nc(N[C@@H]6CCCC[C@H]6O)sc5c4)n3)cn2)CC1` [Compound 98, (1R,2R)-2-(6-(6-(6-(4-methylpiperazin-1-yl)pyridin-3-yl)pyrazin-2-yloxy)benzo[d]thiazol-2-ylamino)cyclohexanol] gave an inhibition at 1 µM (cKIT) of 15%, an inhibition at 1 µM [1] of 98% and an inhibition at 1 µM (PDGFRb) of 12%. For the same molecule, the inhibition at 1 µM [2] was 100% and the inhibition at 1 µM [3] was 100%.
`O[C@@H]1CCCC[C@H]1Nc1nc2ccc(Oc3cncc(-c4ccncc4)c3)cc2s1` [Compound 60, (1R,2R)-2-(6-(3,4′-bipyridin-5-yloxy)benzo[d]thiazol-2-ylamino)cyclohexanol] gave an inhibition at 1 µM (cKIT) of 52%, an inhibition at 1 µM [1] of 95% and an inhibition at 1 µM (PDGFRb) of 3%. It also gave an inhibition at 1 µM [2] of 100% and an inhibition at 1 µM [3] of 97%.
